In PubChem BioAssay (NCI):
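Dose response: 5 concentrations. Exposure: 48 h. Format: 96-well plates. Endpoint: linear interpolation; highest concentration if not reached. The concentration for 50% growth inhibition is given as GI50. TGI: total growth inhibition.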

Assays:
Test in all cases: NCI tumour cell line growth inhibition, 48 h
DMS 114 small cell lung = system: DMS 114 small cell lung
NCI/ADR-RES ovarian = system: NCI/ADR-RES ovarian
UACC-257 melanoma = system: UACC-257 melanoma
SNB-75 CNS = system: SNB-75 CNS
SF-539 CNS = system: SF-539 CNS
K-562 leukemia = system: K-562 leukemia
A498 renal = system: A498 renal
DLD-1 colon = system: DLD-1 colon
M14 melanoma = system: M14 melanoma
SK-MEL-28 melanoma = system: SK-MEL-28 melanoma
SF-268 CNS = system: SF-268 CNS
SNB-78 CNS = system: SNB-78 CNS
T-47D breast = system: T-47D breast
MDA-N = system: MDA-N
XF 498 CNS = system: XF 498 CNS
786-0 renal = system: 786-0 renal
PC-3 prostate = system: PC-3 prostate
NCI-H522 lung = system: NCI-H522 lung
OVCAR-8 ovarian = system: OVCAR-8 ovarian
M19-MEL melanoma = system: M19-MEL melanoma
NCI-H23 lung = system: NCI-H23 lung
LXFL 529 NSCLC = system: LXFL 529 NSCLC
HL-60(TB) leukemia = system: HL-60(TB) leukemia
BT-549 breast = system: BT-549 breast
MCF7 breast = system: MCF7 breast
HCC-2998 colon = system: HCC-2998 colon
OVCAR-5 ovarian = system: OVCAR-5 ovarian
HCT-15 colon = system: HCT-15 colon
MALME-3M melanoma = system: MALME-3M melanoma
A549 NSCLC = system: A549 NSCLC
SR leukemia = system: SR leukemia
HS 578T breast = system: HS 578T breast
RXF-631 renal = system: RXF-631 renal
CAKI-1 renal = system: CAKI-1 renal
SF-295 CNS = system: SF-295 CNS
U251 CNS = system: U251 CNS
HOP-62 NSCLC = system: HOP-62 NSCLC
NCI-H460 lung = system: NCI-H460 lung
UACC-62 melanoma = system: UACC-62 melanoma
HT29 colon = system: HT29 colon
NCI-H226 lung = system: NCI-H226 lung
LOX IMVI melanoma = system: LOX IMVI melanoma
COLO 205 colon = system: COLO 205 colon
EKVX NSCLC = system: EKVX NSCLC
DU-145 prostate = system: DU-145 prostate
SK-OV-3 ovarian = system: SK-OV-3 ovarian
UO-31 renal = system: UO-31 renal
SK-MEL-2 melanoma = system: SK-MEL-2 melanoma
DMS 273 small cell lung = system: DMS 273 small cell lung
MDA-MB-231 breast = system: MDA-MB-231 breast
MOLT-4 leukemia = system: MOLT-4 leukemia
MDA-MB-435 = system: MDA-MB-435
OVCAR-3 ovarian = system: OVCAR-3 ovarian
RPMI-8226 leukemia = system: RPMI-8226 leukemia
KM12 colon = system: KM12 colon
ACHN renal = system: ACHN renal
RXF 393 renal = system: RXF 393 renal
SNB-19 CNS = system: SNB-19 CNS
SK-MEL-5 melanoma = system: SK-MEL-5 melanoma
SW-620 colon = system: SW-620 colon
SN12C renal = system: SN12C renal
CCRF-CEM leukemia = system: CCRF-CEM leukemia
HOP-92 NSCLC = system: HOP-92 NSCLC
OVCAR-4 ovarian = system: OVCAR-4 ovarian
HCT-116 colon = system: HCT-116 colon
IGROV1 ovarian = system: IGROV1 ovarian
TK-10 renal = system: TK-10 renal
KM20L2 colon = system: KM20L2 colon

SMILES: O=P(O)(NCCCl)NCCCl
- GI50 (DMS 114 small cell lung): 99.1 µM
- TGI (DMS 114 small cell lung): > 100 µM
- TGI (NCI/ADR-RES ovarian): > 100 µM
- GI50 (UACC-257 melanoma): > 100 µM
- TGI (UACC-257 melanoma): > 100 µM
- GI50 (SNB-75 CNS): 7.07 µM
- TGI (SNB-75 CNS): > 100 µM
- TGI (SF-539 CNS): > 100 µM
- TGI (K-562 leukemia): > 100 µM
- TGI (A498 renal): > 100 µM
- GI50 (DLD-1 colon): > 100 µM
- TGI (DLD-1 colon): > 100 µM
- GI50 (M14 melanoma): 5.78 µM
- TGI (M14 melanoma): > 100 µM
- TGI (SK-MEL-28 melanoma): > 100 µM
- TGI (SF-268 CNS): > 100 µM
- GI50 (SNB-78 CNS): > 100 µM
- TGI (SNB-78 CNS): > 100 µM
- TGI (T-47D breast): > 100 µM
- TGI (MDA-N): > 100 µM
- GI50 (XF 498 CNS): > 100 µM
- TGI (XF 498 CNS): > 100 µM
- TGI (786-0 renal): > 100 µM
- TGI (PC-3 prostate): > 100 µM
- TGI (NCI-H522 lung): > 100 µM
- GI50 (OVCAR-8 ovarian): > 100 µM
- TGI (OVCAR-8 ovarian): > 100 µM
- GI50 (M19-MEL melanoma): > 100 µM
- TGI (M19-MEL melanoma): > 100 µM
- TGI (NCI-H23 lung): > 100 µM
- GI50 (LXFL 529 NSCLC): > 100 µM
- TGI (LXFL 529 NSCLC): > 100 µM
- TGI (HL-60(TB) leukemia): > 100 µM
- TGI (BT-549 breast): > 100 µM
- TGI (MCF7 breast): > 100 µM
- TGI (HCC-2998 colon): > 100 µM
- GI50 (OVCAR-5 ovarian): > 100 µM
- TGI (OVCAR-5 ovarian): > 100 µM
- GI50 (HCT-15 colon): > 100 µM
- TGI (HCT-15 colon): > 100 µM
- TGI (MALME-3M melanoma): > 100 µM
- TGI (A549 NSCLC): > 100 µM
- GI50 (SR leukemia): 40.6 µM
- TGI (SR leukemia): > 100 µM
- TGI (HS 578T breast): > 100 µM
- TGI (RXF-631 renal): > 100 µM
- TGI (CAKI-1 renal): > 100 µM
- TGI (SF-295 CNS): > 100 µM
- GI50 (U251 CNS): > 100 µM
- TGI (U251 CNS): > 100 µM
- TGI (HOP-62 NSCLC): > 100 µM
- GI50 (NCI-H460 lung): 4.03 µM
- TGI (NCI-H460 lung): > 100 µM
- TGI (UACC-62 melanoma): > 100 µM
- GI50 (HT29 colon): > 100 µM
- TGI (HT29 colon): > 100 µM
- TGI (NCI-H226 lung): > 100 µM
- TGI (LOX IMVI melanoma): > 100 µM
- TGI (COLO 205 colon): > 100 µM
- GI50 (EKVX NSCLC): > 100 µM
- TGI (EKVX NSCLC): > 100 µM
- TGI (DU-145 prostate): > 100 µM
- TGI (SK-OV-3 ovarian): > 100 µM
- TGI (UO-31 renal): > 100 µM
- TGI (SK-MEL-2 melanoma): > 100 µM
- TGI (DMS 273 small cell lung): > 100 µM
- TGI (MDA-MB-231 breast): > 100 µM
- TGI (MOLT-4 leukemia): > 100 µM
- TGI (MDA-MB-435): > 100 µM
- GI50 (OVCAR-3 ovarian): > 100 µM
- TGI (OVCAR-3 ovarian): > 100 µM
- TGI (RPMI-8226 leukemia): > 100 µM
- GI50 (KM12 colon): > 100 µM
- TGI (KM12 colon): > 100 µM
- TGI (ACHN renal): > 100 µM
- GI50 (RXF 393 renal): > 100 µM
- TGI (RXF 393 renal): > 100 µM
- GI50 (SNB-19 CNS): > 100 µM
- TGI (SNB-19 CNS): > 100 µM
- GI50 (SK-MEL-5 melanoma): > 100 µM
- TGI (SK-MEL-5 melanoma): > 100 µM
- GI50 (SW-620 colon): > 100 µM
- TGI (SW-620 colon): > 100 µM
- TGI (SN12C renal): > 100 µM
- TGI (CCRF-CEM leukemia): > 100 µM
- TGI (HOP-92 NSCLC): > 100 µM
- TGI (OVCAR-4 ovarian): > 100 µM
- TGI (HCT-116 colon): > 100 µM
- TGI (IGROV1 ovarian): > 100 µM
- GI50 (TK-10 renal): > 100 µM
- TGI (TK-10 renal): > 100 µM

SMILES: Cc1cc(N(CCC#N)CCC#N)ccc1/C=C\C(=O)Nc1ccccc1
- TGI (DMS 114 small cell lung): > 100 µM
- TGI (UACC-257 melanoma): > 100 µM
- TGI (SNB-75 CNS): > 100 µM
- TGI (SF-539 CNS): > 100 µM
- TGI (K-562 leukemia): > 100 µM
- TGI (A498 renal): > 100 µM
- TGI (DLD-1 colon): > 100 µM
- TGI (M14 melanoma): > 100 µM
- TGI (SK-MEL-28 melanoma): > 100 µM
- TGI (SF-268 CNS): > 100 µM
- TGI (XF 498 CNS): > 100 µM
- TGI (786-0 renal): > 100 µM
- TGI (NCI-H522 lung): > 100 µM
- TGI (OVCAR-8 ovarian): > 100 µM
- TGI (M19-MEL melanoma): > 100 µM
- TGI (NCI-H23 lung): > 100 µM
- TGI (LXFL 529 NSCLC): > 100 µM
- TGI (HL-60(TB) leukemia): > 100 µM
- TGI (HCC-2998 colon): 80.5 µM
- TGI (OVCAR-5 ovarian): > 100 µM
- TGI (HCT-15 colon): > 100 µM
- TGI (MALME-3M melanoma): > 100 µM
- TGI (A549 NSCLC): > 100 µM
- TGI (RXF-631 renal): > 100 µM
- TGI (CAKI-1 renal): > 100 µM
- TGI (SF-295 CNS): > 100 µM
- TGI (U251 CNS): > 100 µM
- TGI (HOP-62 NSCLC): > 100 µM
- TGI (NCI-H460 lung): > 100 µM
- TGI (UACC-62 melanoma): > 100 µM
- TGI (HT29 colon): > 100 µM
- TGI (NCI-H226 lung): > 100 µM
- TGI (LOX IMVI melanoma): > 100 µM
- TGI (COLO 205 colon): > 100 µM
- TGI (EKVX NSCLC): > 100 µM
- TGI (SK-OV-3 ovarian): > 100 µM
- TGI (UO-31 renal): > 100 µM
- TGI (SK-MEL-2 melanoma): > 100 µM
- TGI (DMS 273 small cell lung): > 100 µM
- TGI (MOLT-4 leukemia): > 100 µM
- TGI (OVCAR-3 ovarian): > 100 µM
- TGI (RPMI-8226 leukemia): > 100 µM
- TGI (KM12 colon): > 100 µM
- TGI (ACHN renal): > 100 µM
- TGI (SNB-19 CNS): > 100 µM
- TGI (SK-MEL-5 melanoma): > 100 µM
- TGI (SW-620 colon): > 100 µM
- TGI (SN12C renal): > 100 µM
- TGI (CCRF-CEM leukemia): > 100 µM
- TGI (HOP-92 NSCLC): > 100 µM
- TGI (OVCAR-4 ovarian): > 100 µM
- TGI (KM20L2 colon): > 100 µM
- TGI (HCT-116 colon): > 100 µM
- TGI (IGROV1 ovarian): > 100 µM
- TGI (TK-10 renal): > 100 µM
